Here are results for five molecules from paper PMC3460366, “Synthesis and Antibacterial Evaluation of a New Series of N-Alkyl-2-alkynyl/(E)-alkenyl-4-(1H)-quinolones” (Molecules, 2012).

The subject of data set [1] is M. smegmatis mc^2155. Briefly: Broth dilution MIC against M. smegmatis mc^2155. As to conditions: Mycolicibacterium smegmatis, 72 h. It is filed as cell-based. Background: In broth dilution the organism is exposed to a series of concentrations in liquid medium.
Data set [2] deals with M. phlei (ATCC 11758). Briefly: Broth dilution MIC against M. phlei. The class given is cell-based. The following applies: Mycolicibacterium phlei, ATCC11758, 72 h.
Data set [3] concerns human diploid embryonic lung cell line MRC-5. Briefly: XTT cytotoxicity assay on MRC-5 cells. It is filed as cell-based. As to conditions: for Metabolic active MRC-5 cells (%): XTT; for toxicity to MRC-5 cell line (in words): at / up to 100 µM. On the procedure: In order to assess the cytotoxicity of these novel quinolone derivatives, the effect on the viability of a human lung fibroblast cell line MRC-5, was measured using XTT proliferation assay. […] In addition, the position of the triple bond in the side chain seems to have a significant influence on cytotoxcity which is increased in compounds with a triple bond more distant to the quinolone nucleus. This can be concluded by comparing results of 8l, 8n, 8p, and 8r having similar antimycobacterial activity on M. smegmatis but different cytotoxcity depending on triple bond position.
The cytotoxic activity of the synthetic compounds was determined by means of an XTT Cell Proliferation Kit II (Roche Diagnostics, Mannheim, Germany) using the human diploid embryonic lung cell line MRC-5 [11]. The quinolone derivatives were tested at concentrations of 100, 60, 30 and 10 µM in triplicate and the percentage of viable cells at each concentration was determined by comparing with the control.
Background: Tetrazolium assays rely on reduction of a dye to a coloured formazan, in cell work by metabolically active cells.

Data set [4] relates to S. aureus EMRSA-16. The data set can be described thus: Broth dilution MIC against EMRSA-16. It is filed as cell-based. The following applies: Staphylococcus aureus, EMRSA16, 18 h.
For data set [5], the system named is M. smegmatis (ATCC 14468). Briefly: Microtiter broth dilution MIC against M. smegmatis (ATCC 14468). The class given is cell-based. The following applies: Mycolicibacterium smegmatis, ATCC14468, 72 h, 37 °C, MTT.
For data set [6], the target named is T1, M. tuberculosis MurE ligase (Mycobacterium tuberculosis, UniProt P9WJL3).
T1 construct: made in house; host or cells: E. coli BL21(DE3)pLysS
T1 sequence (P9WJL3 whole entry): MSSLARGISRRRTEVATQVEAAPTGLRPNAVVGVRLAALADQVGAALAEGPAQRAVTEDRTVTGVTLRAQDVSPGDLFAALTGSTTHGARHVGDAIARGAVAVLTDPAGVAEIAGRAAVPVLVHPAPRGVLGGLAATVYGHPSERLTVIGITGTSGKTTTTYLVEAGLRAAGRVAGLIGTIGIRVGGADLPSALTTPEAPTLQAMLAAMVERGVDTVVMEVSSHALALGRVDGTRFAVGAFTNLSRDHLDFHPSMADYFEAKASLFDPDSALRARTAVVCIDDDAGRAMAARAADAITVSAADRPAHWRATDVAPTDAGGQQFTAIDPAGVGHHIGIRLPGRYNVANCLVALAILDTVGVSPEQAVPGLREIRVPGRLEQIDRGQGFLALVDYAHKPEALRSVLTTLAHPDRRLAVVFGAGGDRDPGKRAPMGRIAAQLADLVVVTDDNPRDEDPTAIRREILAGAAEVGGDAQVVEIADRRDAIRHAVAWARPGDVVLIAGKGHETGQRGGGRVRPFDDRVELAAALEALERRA
Briefly: M. tuberculosis MurE inhibition assay (phosphate colorimetric detection). It is filed as biochemical. As to conditions: tested at 1000, 300, 100 and 30 µM; IC50 from plot of percent inhibition vs. concentration; read-out: IC50 Mtb MurE.

In data set [7] the test system is S. aureus EMRSA-15. Briefly: Broth dilution MIC against EMRSA-15. It is filed as cell-based. As to conditions: Staphylococcus aureus, EMRSA15, 18 h.
Data set [8] relates to M. fortuitum (ATCC 6841). The data set can be described thus: Broth dilution MIC against M. fortuitum. The class given is cell-based. As to conditions: Mycolicibacterium fortuitum, ATCC6841, 72 h.
Data set [9] relates to M. bovis BCG (ATCC 35734). The data set can be described thus: microbe, parasite or virus in culture. The following applies: Mycobacterium tuberculosis variant bovis BCG, 336 h, read-out: MIC M. bovis BCG. It is filed as cell-based.
Data set [10] addresses T1, M. tuberculosis MurE ligase. Details: method as in PMID 21622974. As to conditions: positive control; read-out: IC50 Mtb MurE; cited from earlier work.
The subject of data set [11] is EMRSA-15 and -16. The data set can be described thus: Broth dilution MIC against epidemic MRSA strains. It is filed as cell-based, S. aureus. As to conditions: Staphylococcus aureus, range over both strains and the compounds named.

Converted amounts (≈) assume the structure as drawn. “And” between values parts separate entries of the source, which are not always exact repeats. Equal values may be shown once. Read-outs that look alike come from different tables or passages of the source.

One may read the IC50 as the concentration needed to halve the response being measured. What is called melting point is the temperature, or range, at which the solid turns liquid. Molecule `CCCCCCCCCCCCC#Cc1cc(=O)c2ccccc2n1C` [Compound 8r, 1-Methyl-2-(1′-tetradecynyl)-4(1H)-quinolone] had a melting point of 41 to 43 °C. Moreover, the MIC in data set [1] is 1 µg/mL and 2.8 µM. The MIC in data set [2] was 2 µg/mL and 5.7 µM. In addition, the “Metabolic active MRC-5 cells (%)” value in data set [3] (10 µM) is recorded as 99.7 ± 2.03%. The “Metabolic active MRC-5 cells (%)” value in data set [3] (30 µM) came out at 98.1 ± 1.65%. For the same molecule, the “Metabolic active MRC-5 cells (%)” value in data set [3] (60 µM) was determined as 97.1 ± 1.69%. The “Metabolic active MRC-5 cells (%)” value in [3] (100 µM) is 95.7 ± 1.14%. In addition, the “toxicity to MRC-5 cell line (in words)” value in data set [3] was “devoid of toxicity”. Besides, the MIC in data set [4] is 128 µg/mL and 365 µM. Moreover, the MIC in data set [5] worked out at 0.5 µg/mL (≈ 1.42 µM). The half-inhibitory concentration (IC50) in data set [6] is 631 µM. Further, in data set [7], the MIC was 16 µg/mL and 45.6 µM. Besides, the MIC in [8] was 0.5 µg/mL and 1.5 µM. Further, the MIC in data set [9] was 25 µg/mL and 71.2 µM.

As to `CCCCCCCC/C=C\CCCCc1cc(=O)c2ccccc2n1C` [1-Methyl-2-[(5Z)-tetradecenyl]-4(1H)-quinolone], in [10], the half-inhibitory concentration (IC50) was 36 µM.

Consider `CCCCCCCCC#CCCc1cc(=O)c2ccccc2n1CCC` [Compound 8l, 1-(n-Propyl)-2-(3'-dodecynyl)-4(1H)-quinolone], for which the MIC is 4 µg/mL and 11.4 µM in [2]; 8 µg/mL and 22.8 µM in data set [4]; 1 µg/mL and 2.8 µM in data set [5]; 2 µg/mL and 5.7 µM in [7]; 2 µg/mL and 5.7 µM in data set [8]; 25 µg/mL and 71.2 µM in data set [9]. In data set [11], the MIC is 2 µg/mL to 8 µg/mL and 5.5 µM to 22.8 µM. Also, the “Metabolic active MRC-5 cells (%)” value turned out to be 100 ± 0.31% in data set [3] (10 µM), 99.1 ± 2.32% in [3] (30 µM), 69.1 ± 8.04% in data set [3] (60 µM) and 9.0 ± 6.85% in [3] (100 µM). Moreover, in [6], the half-inhibitory concentration (IC50) was determined as 263 µM.

As to `CCCCCCCCCCC#Cc1cc(=O)c2ccccc2n1C` [Compound 8n, 1-Methyl-2-(1'-dodecynyl)-4(1H)-quinolone], the MIC in data set [1] was 1 µg/mL and 3.1 µM; in [2], 1 µg/mL and 3.1 µM; in [4], 4 µg/mL and 12.4 µM; in data set [5] it was 0.5 µg/mL (≈ 1.55 µM); in data set [7] it was 2 µg/mL and 6.2 µM; in data set [8] it was 0.5 µg/mL and 1.5 µM. Further, the MIC in data set [9] is 25 µg/mL and 77.4 µM; in [11], 2 µg/mL to 8 µg/mL and 5.5 µM to 22.8 µM. Moreover, the “Metabolic active MRC-5 cells (%)” value in [3] (10 µM) is recorded as 101 ± 0.85%; in [3] (30 µM) it was 100 ± 0.72%; in [3] (60 µM) it was 100 ± 0.81%; in [3] (100 µM) it was 100 ± 0.82%. The “toxicity to MRC-5 cell line (in words)” value in [3] is recorded as “devoid of toxicity”. In addition, the IC50 in data set [6] was 251 µM.

Turning to `CCCCCCCCC#CCCc1cc(=O)c2ccccc2n1CCCC` [Compound 8m, 1-(n-Butyl)-2-(3'-dodecynyl)-4(1H)-quinolone], the MIC in data set [1] is 2 µg/mL and 5.5 µM; in data set [2], 4 µg/mL and 10.9 µM; in data set [4], 4 µg/mL and 10.9 µM; in data set [5] it was 2 µg/mL and 5.5 µM; in [7] it was 2 µg/mL and 5.5 µM; in data set [8], 2 µg/mL and 5.5 µM. Further, the MIC was 25 µg/mL and 68.5 µM in [9]; 2 µg/mL to 8 µg/mL and 5.5 µM to 22.8 µM in data set [11]. For the same molecule, the “Metabolic active MRC-5 cells (%)” value in [3] (10 µM) was 94.9 ± 3.18%; in data set [3] (30 µM) it was 89.7 ± 2.46%; in data set [3] (60 µM) it was 67.5 ± 3.19%; in data set [3] (100 µM), 0.4 ± 0.02%. In addition, in data set [6], the IC50 was found to be 235 µM.
